Results published in ChEMBL document CHEMBL1148993, “UV-mediated genotoxicity of furanoquinoline and of certain tryptophan-derived alkaloids” (J Nat Prod, 1983).

What was measured:
Escherichia coli [1] = test: Phototoxicity against Escherichia coli at 16.7 ug/disk after irradiation with W/m'2 UV light; assay type: functional; details: light or radiation study, read-out: IZ
Escherichia coli [2] = test: Phototoxicity against Escherichia coli at 16.7 ug/disk in dark; assay type: functional; details: light or radiation study, read-out: IZ
Pseudomonas aeruginosa [3] = test: Phototoxicity against Pseudomonas aeruginosa at 16.7 ug/disk after irradiation with W/m'2 UV light; assay type: functional; details: light or radiation study, read-out: IZ
Pseudomonas aeruginosa [4] = test: Phototoxicity against Pseudomonas aeruginosa at 16.7 ug/disk in dark; assay type: functional; details: light or radiation study, read-out: IZ
Pseudomonas fluorescens [5] = test: Phototoxicity against Pseudomonas fluorescens at 16.7 ug/disk after irradiation with W/m'2 UV light; assay type: functional; details: light or radiation study, read-out: IZ
Pseudomonas fluorescens [6] = test: Phototoxicity against Pseudomonas fluorescens at 16.7 ug/disk in dark; assay type: functional; details: light or radiation study, read-out: IZ
Bacillus subtilis [7] = test: Phototoxicity against Bacillus subtilis at 16.7 ug/disk after irradiation with W/m'2 UV light; assay type: functional; details: light or radiation study, read-out: IZ
Bacillus subtilis [8] = test: Phototoxicity against Bacillus subtilis at 16.7 ug/disk in dark; assay type: functional; details: light or radiation study, read-out: IZ
Enterococcus faecalis [9] = test: Phototoxicity against Streptococcus faecalis at 16.7 ug/disk after irradiation with W/m'2 UV light; assay type: functional; details: light or radiation study, read-out: IZ
Enterococcus faecalis [10] = test: Phototoxicity against Streptococcus faecalis at 16.7 ug/disk in dark; assay type: functional; details: light or radiation study, read-out: IZ
Staphylococcus aureus [11] = test: Phototoxicity against Staphylococcus aureus at 16.7 ug/disk after irradiation with W/m'2 UV light; assay type: functional; details: light or radiation study, read-out: IZ
Staphylococcus aureus [12] = test: Phototoxicity against Staphylococcus aureus at 16.7 ug/disk in dark; assay type: functional; details: light or radiation study, read-out: IZ
Candida albicans [13] = test: Phototoxicity against Candida albicans at 16.7 ug/disk after irradiation with W/m'2 UV light; assay type: functional; details: light or radiation study, read-out: IZ
Candida albicans [14] = test: Phototoxicity against Candida albicans at 16.7 ug/disk in dark; assay type: functional; details: light or radiation study, read-out: IZ
Saccharomyces cerevisiae [15] = test: Phototoxicity against Saccharomyces cerevisiae at 16.7 ug/disk after irradiation with W/m'2 UV light; assay type: functional; details: light or radiation study, read-out: IZ
Saccharomyces cerevisiae [16] = test: Phototoxicity against Saccharomyces cerevisiae at 16.7 ug/disk in dark; assay type: functional; details: light or radiation study, read-out: IZ
CHO [17] = test: Genotoxicity in CHO cells assessed as chromosomal aberrations at 83.5 ppm after 60 mins in dark followed by 5 W/m'2 UV irradiation for 30 mins; assay type: toxicity, cell-based, Cricetulus griseus; details: chinese hamster, 0.5 h
CHO [18] = test: Genotoxicity in CHO cells assessed as chromosomal aberrations at 83.5 ppm after 90 mins in dark; assay type: toxicity, cell-based, Cricetulus griseus; details: chinese hamster, 1.5 h
CHO [19] = test: Genotoxicity in CHO cells assessed as chromosomal aberrations at 41.7 ppm after 60 mins in dark followed by 5 W/m'2 UV irradiation for 30 mins; assay type: toxicity, cell-based, Cricetulus griseus; details: chinese hamster, 0.5 h
CHO [20] = test: Genotoxicity in CHO cells assessed as chromosomal aberrations at 20.8 ppm after 60 mins in dark followed by 5 W/m'2 UV irradiation for 30 mins; assay type: toxicity, cell-based, Cricetulus griseus; details: chinese hamster, 0.5 h
CHO [21] = test: Genotoxicity in CHO cells assessed as chromosomal aberrations at 10.4 ppm after 60 mins in dark followed by 5 W/m'2 UV irradiation for 30 mins; assay type: toxicity, cell-based, Cricetulus griseus; details: chinese hamster, 0.5 h
CHO [22] = test: Genotoxicity in CHO cells assessed as chromosomal aberrations at 5.2 ppm after 60 mins in dark followed by 5 W/m'2 UV irradiation for 30 mins; assay type: toxicity, cell-based, Cricetulus griseus; details: chinese hamster, 0.5 h
CHO [23] = test: Genotoxicity in CHO cells assessed as mitotic inhibition at 2.6 ppm after 60 mins in dark followed by 5 W/m'2 UV irradiation for 30 mins; assay type: toxicity, cell-based, Cricetulus griseus; details: chinese hamster, 0.5 h
Escherichia coli [24] = test: Phototoxicity against Escherichia coli at 100 ug/disk after irradiation with W/m'2 UV light; assay type: functional; details: light or radiation study, read-out: IZ
Escherichia coli [25] = test: Phototoxicity against Escherichia coli at 100 ug/disk in dark; assay type: functional; details: light or radiation study, read-out: IZ
Pseudomonas aeruginosa [26] = test: Phototoxicity against Pseudomonas aeruginosa at 100 ug/disk after irradiation with W/m'2 UV light; assay type: functional; details: light or radiation study, read-out: IZ
Pseudomonas aeruginosa [27] = test: Phototoxicity against Pseudomonas aeruginosa at 100 ug/disk in dark; assay type: functional; details: light or radiation study, read-out: IZ
Pseudomonas fluorescens [28] = test: Phototoxicity against Pseudomonas fluorescens at 100 ug/disk after irradiation with W/m'2 UV light; assay type: functional; details: light or radiation study, read-out: IZ
Pseudomonas fluorescens [29] = test: Phototoxicity against Pseudomonas fluorescens at 100 ug/disk in dark; assay type: functional; details: light or radiation study, read-out: IZ
Bacillus subtilis [30] = test: Phototoxicity against Bacillus subtilis at 100 ug/disk after irradiation with W/m'2 UV light; assay type: functional; details: light or radiation study, read-out: IZ
Bacillus subtilis [31] = test: Phototoxicity against Bacillus subtilis at 100 ug/disk in dark; assay type: functional; details: light or radiation study, read-out: IZ
Enterococcus faecalis [32] = test: Phototoxicity against Streptococcus faecalis at 100 ug/disk after irradiation with W/m'2 UV light; assay type: functional; details: light or radiation study, read-out: IZ
Enterococcus faecalis [33] = test: Phototoxicity against Streptococcus faecalis at 100 ug/disk in dark; assay type: functional; details: light or radiation study, read-out: IZ
Staphylococcus aureus [34] = test: Phototoxicity against Staphylococcus aureus at 100 ug/disk after irradiation with W/m'2 UV light; assay type: functional; details: light or radiation study, read-out: IZ
Staphylococcus aureus [35] = test: Phototoxicity against Staphylococcus aureus at 100 ug/disk in dark; assay type: functional; details: light or radiation study, read-out: IZ
Candida albicans [36] = test: Phototoxicity against Candida albicans at 100 ug/disk after irradiation with W/m'2 UV light; assay type: functional; details: light or radiation study, read-out: IZ
Candida albicans [37] = test: Phototoxicity against Candida albicans at 100 ug/disk in dark; assay type: functional; details: light or radiation study, read-out: IZ
Saccharomyces cerevisiae [38] = test: Phototoxicity against Saccharomyces cerevisiae at 100 ug/disk after irradiation with W/m'2 UV light; assay type: functional; details: light or radiation study, read-out: IZ
Saccharomyces cerevisiae [39] = test: Phototoxicity against Saccharomyces cerevisiae at 100 ug/disk in dark; assay type: functional; details: light or radiation study, read-out: IZ
CHO [40] = test: Genotoxicity in CHO cells assessed as chromosomal aberrations at 12.5 ppm after 60 mins in dark followed by 5 W/m'2 UV irradiation for 30 mins; assay type: toxicity, cell-based, Cricetulus griseus; details: chinese hamster, 0.5 h
CHO [41] = test: Genotoxicity in CHO cells assessed as chromosomal aberrations at 12.5 ppm after 90 mins in dark; assay type: toxicity, cell-based, Cricetulus griseus; details: chinese hamster, 1.5 h
CHO [42] = test: Genotoxicity in CHO cells assessed as mitotic inhibition at 3.12 ppm after 60 mins in dark followed by 5 W/m'2 UV irradiation for 30 mins; assay type: toxicity, cell-based, Cricetulus griseus; details: chinese hamster, 0.5 h
CHO [43] = test: Genotoxicity in CHO cells assessed as chromosomal aberrations at 1.56 ppm after 60 mins in dark followed by 5 W/m'2 UV irradiation for 30 mins; assay type: toxicity, cell-based, Cricetulus griseus; details: chinese hamster, 0.5 h
CHO [44] = test: Genotoxicity in CHO cells assessed as chromosomal aberrations at 0.78 ppm after 60 mins in dark followed by 5 W/m'2 UV irradiation for 30 mins; assay type: toxicity, cell-based, Cricetulus griseus; details: chinese hamster, 0.5 h
CHO [45] = test: Genotoxicity in CHO cells assessed as chromosomal aberrations at 0.39 ppm after 60 mins in dark followed by 5 W/m'2 UV irradiation for 30 mins; assay type: toxicity, cell-based, Cricetulus griseus; details: chinese hamster, 0.5 h
CHO [46] = test: Genotoxicity in CHO cells assessed as chromosomal aberrations at 0.19 ppm after 60 mins in dark followed by 5 W/m'2 UV irradiation for 30 mins; assay type: toxicity, cell-based, Cricetulus griseus; details: chinese hamster, 0.5 h
CHO [47] = test: Genotoxicity in CHO cells assessed as chromosomal aberrations at 6.25 ppm after 60 mins in dark followed by 5 W/m'2 UV irradiation for 30 mins; assay type: toxicity, cell-based, Cricetulus griseus; details: chinese hamster, 0.5 h

## COc1cc2nccc3c4ccccc4n(c1=O)c23 [5-METHOXYCANTHINONE]
Escherichia coli [1]
  zone of inhibition at 16.7 µg/disc: 7 mm
Escherichia coli [2]
  zone of inhibition at 16.7 µg/disc: 0 mm
Pseudomonas aeruginosa [3]
  zone of inhibition at 16.7 µg/disc: 0 mm
Pseudomonas aeruginosa [4]
  zone of inhibition at 16.7 µg/disc: 0 mm
Pseudomonas fluorescens [5]
  zone of inhibition at 16.7 µg/disc: 0 mm
Pseudomonas fluorescens [6]
  zone of inhibition at 16.7 µg/disc: 0 mm
Bacillus subtilis [7]
  zone of inhibition at 16.7 µg/disc: 8 mm
Bacillus subtilis [8]
  zone of inhibition at 16.7 µg/disc: 8 mm
Enterococcus faecalis [9]
  zone of inhibition at 16.7 µg/disc: 0 mm
Enterococcus faecalis [10]
  zone of inhibition at 16.7 µg/disc: 0 mm
Staphylococcus aureus [11]
  zone of inhibition at 16.7 µg/disc: 8 mm
Staphylococcus aureus [12]
  zone of inhibition at 16.7 µg/disc: 0 mm
Candida albicans [13]
  zone of inhibition at 16.7 µg/disc: 12 mm
Candida albicans [14]
  zone of inhibition at 16.7 µg/disc: 0 mm
Saccharomyces cerevisiae [15]
  zone of inhibition at 16.7 µg/disc: 6 mm
Saccharomyces cerevisiae [16]
  zone of inhibition at 16.7 µg/disc: 0 mm
CHO [17]
  Activity: Toxic
CHO [18]
  Activity: 0%
CHO [19]
  Activity: Toxic
CHO [20]
  Activity: Toxic
CHO [21]
  Activity: Toxic
CHO [22]
  Activity: Toxic
CHO [23]
  Activity: Active

## Cc1ncc(C2CCCN2C)c2c1[nH]c1ccccc12 (configuration not stated) [BREVIOCOLLINE]
Escherichia coli [24]
  zone of inhibition at 100 µg/disc: 15.5 mm
Escherichia coli [25]
  zone of inhibition at 100 µg/disc: 0 mm
Pseudomonas aeruginosa [26]
  zone of inhibition at 100 µg/disc: 13 mm
Pseudomonas aeruginosa [27]
  zone of inhibition at 100 µg/disc: 0 mm
Pseudomonas fluorescens [28]
  zone of inhibition at 100 µg/disc: 7 mm
Pseudomonas fluorescens [29]
  zone of inhibition at 100 µg/disc: 0 mm
Bacillus subtilis [30]
  zone of inhibition at 100 µg/disc: 12.5 mm
Bacillus subtilis [31]
  zone of inhibition at 100 µg/disc: 0 mm
Enterococcus faecalis [32]
  zone of inhibition at 100 µg/disc: 14 mm
Enterococcus faecalis [33]
  zone of inhibition at 100 µg/disc: 0 mm
Staphylococcus aureus [34]
  zone of inhibition at 100 µg/disc: 15.3 mm
Staphylococcus aureus [35]
  zone of inhibition at 100 µg/disc: 0 mm
Candida albicans [36]
  zone of inhibition at 100 µg/disc: 9.5 mm
Candida albicans [37]
  zone of inhibition at 100 µg/disc: 0 mm
Saccharomyces cerevisiae [38]
  zone of inhibition at 100 µg/disc: 7 mm
Saccharomyces cerevisiae [39]
  zone of inhibition at 100 µg/disc: 0 mm
CHO [40]
  Activity: Toxic
CHO [41]
  Activity: 0%
CHO [42]
  Activity: Active
CHO [43]
  Activity: 56%
CHO [44]
  Activity: 37.1%
CHO [45]
  Activity: 5.5%
CHO [46]
  Activity: 0%
CHO [47]
  Activity: Toxic
